Experimental data published in ChEMBL document CHEMBL5113513, “Selective Inhibitors of Medium-Size S1' Pocket Matrix Metalloproteinases: A Stepping Stone of Future Drug Discovery” (J Med Chem, 2022).

Columns and labels:
[1] = Inhibition of brain damage in C57BL/6J mouse traumatic brain injury model at 25 mg/kg, ip for 7 days by cresyl violet-staining based histopathological analysis; format: functional; conditions: 168 h, time 7 day
Interstitial collagenase [2] = biological target: T1, Interstitial collagenase (Homo sapiens, UniProt P03956); assay: Inhibition of MMP-1 (unknown origin) using 7-(methoxycoumarin-4yl)acetyl-Pro-Leu-Gly-Leu-(N-3-[2,4-dinitrophenyl]- L-2,3-diamino-propionyl)-Ala-Arg-NH2 as fluorogenic substrate for 45 mins by fluorogenic analysis
T1 sequence (P03956 whole entry): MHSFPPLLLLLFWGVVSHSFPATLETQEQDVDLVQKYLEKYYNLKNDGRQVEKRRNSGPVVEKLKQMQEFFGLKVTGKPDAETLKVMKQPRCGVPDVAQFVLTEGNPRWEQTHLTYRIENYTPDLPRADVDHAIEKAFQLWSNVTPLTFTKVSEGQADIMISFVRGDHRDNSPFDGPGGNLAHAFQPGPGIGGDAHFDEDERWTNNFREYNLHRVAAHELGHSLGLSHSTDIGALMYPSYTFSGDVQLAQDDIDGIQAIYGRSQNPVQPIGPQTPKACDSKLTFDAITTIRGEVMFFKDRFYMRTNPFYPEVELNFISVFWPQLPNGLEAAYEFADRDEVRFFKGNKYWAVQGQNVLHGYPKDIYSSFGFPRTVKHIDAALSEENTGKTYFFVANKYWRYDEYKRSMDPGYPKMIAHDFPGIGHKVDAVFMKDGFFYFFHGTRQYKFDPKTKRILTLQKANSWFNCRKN

[3] = biological target: T2, 72 kDa type IV collagenase (Homo sapiens, UniProt P08253); assay: Inhibition of recombinant human MMP-2 for 3 hrs using colorimetric substrate by ELISA
T2 sequence (P08253 whole entry): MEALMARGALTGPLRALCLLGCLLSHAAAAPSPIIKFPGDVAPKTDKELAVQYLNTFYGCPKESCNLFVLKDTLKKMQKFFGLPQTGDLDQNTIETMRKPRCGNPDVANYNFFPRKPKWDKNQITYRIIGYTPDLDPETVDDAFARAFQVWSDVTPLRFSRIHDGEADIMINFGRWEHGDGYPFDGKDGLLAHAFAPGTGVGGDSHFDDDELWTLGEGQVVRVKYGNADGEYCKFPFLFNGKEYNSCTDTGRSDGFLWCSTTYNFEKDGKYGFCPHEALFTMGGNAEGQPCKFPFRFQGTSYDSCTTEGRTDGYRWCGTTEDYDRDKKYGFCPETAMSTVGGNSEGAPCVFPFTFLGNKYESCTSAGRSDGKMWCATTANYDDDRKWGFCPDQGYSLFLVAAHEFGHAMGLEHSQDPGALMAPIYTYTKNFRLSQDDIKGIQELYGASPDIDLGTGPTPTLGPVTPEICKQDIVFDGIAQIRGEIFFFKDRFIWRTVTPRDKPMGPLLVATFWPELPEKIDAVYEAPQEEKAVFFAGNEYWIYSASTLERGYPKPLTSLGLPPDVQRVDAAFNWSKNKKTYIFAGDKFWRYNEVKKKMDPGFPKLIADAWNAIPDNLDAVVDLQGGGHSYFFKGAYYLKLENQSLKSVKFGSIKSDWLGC

Neutrophil collagenase [4] = biological target: T3, Neutrophil collagenase (Homo sapiens, UniProt P22894); assay: Inhibition of recombinant human MMP-8 for 3 hrs using colorimetric substrate by ELISA
T3 sequence (P22894 whole entry): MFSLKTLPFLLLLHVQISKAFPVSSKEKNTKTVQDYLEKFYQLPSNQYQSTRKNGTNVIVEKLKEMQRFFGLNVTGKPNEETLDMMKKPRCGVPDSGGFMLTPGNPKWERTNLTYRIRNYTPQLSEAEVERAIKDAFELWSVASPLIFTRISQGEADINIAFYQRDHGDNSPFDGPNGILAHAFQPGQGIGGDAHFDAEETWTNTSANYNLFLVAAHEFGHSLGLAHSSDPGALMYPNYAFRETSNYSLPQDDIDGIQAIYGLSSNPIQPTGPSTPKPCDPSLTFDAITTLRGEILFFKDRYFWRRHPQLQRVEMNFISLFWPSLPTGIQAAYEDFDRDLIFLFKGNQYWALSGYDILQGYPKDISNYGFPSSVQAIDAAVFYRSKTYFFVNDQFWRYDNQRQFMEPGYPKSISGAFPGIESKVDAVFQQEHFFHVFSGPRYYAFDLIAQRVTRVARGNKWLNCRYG

Interstitial collagenase [5] = biological target: T1, Interstitial collagenase; assay: Inhibition of recombinant human MMP-1 for 3 hrs using colorimetric substrate by ELISA
[6] = biological target: T2, 72 kDa type IV collagenase; assay: Inhibition of human MMP-2 using Mca-Pro-Leu-Gly-Leu-Dpa-Ala-Arg-NH2 as substrate preincubated for 1 hr followed by susbstrate addition by fluorescent analysis
Interstitial collagenase [7] = biological target: T1, Interstitial collagenase; assay: Inhibition of human MMP-1 using Mca-Pro-Leu-Gly-Leu-Dpa-Ala-Arg-NH2 as substrate preincubated for 1 hr followed by susbstrate addition by fluorescent analysis
Neutrophil collagenase [8] = biological target: T3, Neutrophil collagenase; assay: Inhibition of human MMP-8 using Mca-Pro-Leu-Gly-Leu-Dpa-Ala-Arg-NH2 as substrate preincubated for 1 hr followed by susbstrate addition by fluorescent analysis
[9] = biological target: Matrix metalloproteinase-14 (Homo sapiens, UniProt P50281); assay: Inhibition of human MMP-14 using Mca-Pro-Leu-Gly-Leu-Dpa-Ala-Arg-NH2 as substrate preincubated for 1 hr followed by susbstrate addition by fluorescent analysis
[10] = Half life in Sprague-Dawley rat at 33 mg/kg, po; format: ADME, organism-based; conditions: in vivo
Collagenase 3 = Collagenase 3 (Homo sapiens, UniProt P45452); assay: Inhibition of recombinant human MMP-13 using peptide substrate by ELISA
[11] = Clearance in Sprague-Dawley rats at 33 mg/kg, sc; format: ADME, organism-based; conditions: rat, in vivo
[12] = AUC in Sprague-Dawley rats at 33 mg/kg, po; format: ADME, organism-based; design: dose 33 mg/kg, route po; conditions: rat, in vivo
[13] = AUC in Sprague-Dawley rats at 33 mg/kg, sc; format: ADME, organism-based; design: dose 33 mg/kg, route sc; conditions: rat, in vivo
[14] = biological target: T2, 72 kDa type IV collagenase; assay: Inhibition of recombinant human MMP-2 using peptide substrate by ELISA
[15] = Half life in Sprague-Dawley rats at 33 mg/kg, sc; format: ADME, organism-based; conditions: rat, in vivo
[16] = biological target: Macrophage metalloelastase (Homo sapiens, UniProt P39900); assay: Inhibition of recombinant human MMP-12 using peptide substrate by ELISA
Sequence of Macrophage metalloelastase (P39900 whole entry): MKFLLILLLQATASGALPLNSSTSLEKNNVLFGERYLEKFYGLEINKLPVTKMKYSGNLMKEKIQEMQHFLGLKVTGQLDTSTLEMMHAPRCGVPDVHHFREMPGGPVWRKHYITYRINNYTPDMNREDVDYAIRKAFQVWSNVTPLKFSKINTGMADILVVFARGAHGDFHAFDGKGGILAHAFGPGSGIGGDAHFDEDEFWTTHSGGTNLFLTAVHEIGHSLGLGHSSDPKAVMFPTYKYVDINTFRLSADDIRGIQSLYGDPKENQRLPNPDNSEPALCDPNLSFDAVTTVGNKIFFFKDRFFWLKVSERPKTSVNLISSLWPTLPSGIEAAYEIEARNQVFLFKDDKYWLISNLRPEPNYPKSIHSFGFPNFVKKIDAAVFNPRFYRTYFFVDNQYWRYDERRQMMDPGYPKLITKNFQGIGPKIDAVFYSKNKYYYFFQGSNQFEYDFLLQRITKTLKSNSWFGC

[17] = Inhibition of recombinant human TACE using peptide substrate by ELISA
[18] = biological target: Matrix metalloproteinase-9 (Homo sapiens, UniProt P14780); assay: Inhibition of recombinant human MMP-9 using peptide substrate by ELISA
Sequence of Matrix metalloproteinase-9 (P14780 whole entry): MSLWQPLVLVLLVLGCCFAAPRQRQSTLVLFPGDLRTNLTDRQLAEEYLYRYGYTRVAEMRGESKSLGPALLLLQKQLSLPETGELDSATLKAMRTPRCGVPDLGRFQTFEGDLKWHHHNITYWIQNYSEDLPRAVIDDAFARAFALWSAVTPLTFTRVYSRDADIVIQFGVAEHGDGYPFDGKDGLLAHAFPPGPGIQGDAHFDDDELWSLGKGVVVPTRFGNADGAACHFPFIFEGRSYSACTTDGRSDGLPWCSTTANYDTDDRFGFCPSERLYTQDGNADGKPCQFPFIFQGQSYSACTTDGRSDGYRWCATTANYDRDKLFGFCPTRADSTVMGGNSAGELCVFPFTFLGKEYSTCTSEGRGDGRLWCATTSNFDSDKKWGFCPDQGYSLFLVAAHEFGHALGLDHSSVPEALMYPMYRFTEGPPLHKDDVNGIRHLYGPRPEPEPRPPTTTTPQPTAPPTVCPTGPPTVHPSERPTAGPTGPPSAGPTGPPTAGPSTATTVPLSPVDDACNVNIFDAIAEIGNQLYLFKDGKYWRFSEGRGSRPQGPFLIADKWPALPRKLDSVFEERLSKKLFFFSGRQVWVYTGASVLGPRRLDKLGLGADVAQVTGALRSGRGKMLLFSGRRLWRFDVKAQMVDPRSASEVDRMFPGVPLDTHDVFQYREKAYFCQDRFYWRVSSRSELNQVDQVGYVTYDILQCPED

Interstitial collagenase [19] = biological target: T1, Interstitial collagenase; assay: Inhibition of MMP-1 (unknown origin) expressed in Escherichia coli BL21(DE3) and measured for 2 mins by enzymatic assay

## O=S(=O)(CC1CS1)c1ccc(Oc2ccccc2)cc1 (stereo not given)
[1]
  inhibition in vivo at 25 mg/kg: 14%

## C=C[C@@H]1OC(Cc2ccccc2)=N[C@H]1CO
Interstitial collagenase [2]
  Ki: > 500000 nM

## CC(C)CNC(=O)P(=O)(O)O
[3]
  IC50: > 100000 nM
Neutrophil collagenase [4]
  IC50: 1000 nM
Interstitial collagenase [5]
  IC50: 40000 nM

## Cc1cc(=O)c(O)c(C(=O)NCc2ccc(-c3ccc(-c4ccccc4)cc3)cc2)o1
[6]
  IC50: > 2000 nM
Interstitial collagenase [7]
  IC50: > 50000 nM
Neutrophil collagenase [8]
  IC50: > 2000 nM
[9]
  IC50: > 2000 nM

## O=C(NCCCCCCNS(=O)(=O)c1ccc(Oc2ccccc2)cc1)P(=O)(O)O
[10]
  half-life: 5.8 h
Collagenase 3
  IC50: > 100 nM
[11]
  CL/F: 7.1 mL/min/kg
[12]
  AUC: 3300 ng·h/mL
[13]
  AUC: 50500 ng·h/mL
[14]
  IC50: 4 nM
[15]
  half-life: 6.6 h
[16]
  IC50: > 100 nM
[17]
  IC50: 20 nM
[18]
  IC50: > 100 nM

## O=C(NO)C1c2ccc(O)cc2CCN1S(=O)(=O)c1cc(Cl)ccc1Cl (stereo not given)
Interstitial collagenase [19]
  IC50: 50000 nM
